One compound from paper PMC3853024, “Aromatase inhibitor treatment with an intravaginal device and its effect on pre-ovulatory ovarian follicles in a bovine model” (Reproductive Biology and Endocrinology : RB&E, 2013) can be followed below.

The subject of the test is plasma FSH. As to the kind of experiment: Plasma FSH concentration (radioimmunoassay) in treated heifers. The format is in vivo, cattle (Hereford-cross beef heifers). Particulars: n=15, P=0.1. As to the method:
Heifers in which a CL was detected were given two luteolytic doses of PGF (12 h apart) and monitored by ultrasonography for ovulation. Five to eight days later, the two largest ovarian follicles were ablated by transvaginal ultrasound-guided follicular aspiration to synchronize follicular wave emergence which was expected to occur 1 to 1.5 days later. Prostaglandin (500 μg cloprostenol, Estrumate, Schering-Plough Animal Health, Pointe-Claire, QC, Canada) was given intramuscularly at 60 and 72 h after follicular ablation to induce regression of the CL and shift from a non-ovulatory to an ovulatory follicular wave. […] Devices were inserted on Day 1 and were kept in place until Day 7 or until ovulation was detected, which ever occurred first. […]
Plasma FSH concentrations were determined in duplicate using a double-antibody radioimmunoassay using NIDDK-anti-oFSH-1 primary antibody and expressed as USDA bovine FSH-Il units. […] All samples were analyzed in a single assay; the intra-assay coefficients of variation were 7.9 and 6.5%, for low (mean, 2.4 ng/mL) and high reference samples (mean 4.9 ng/mL), respectively. […]

For `N#Cc1ccc(C(c2ccc(C#N)cc2)n2cncn2)cc1` [Letrozole], the “Plasma FSH concentrations versus control” value is reported as “tendency for lower”.
